Here are results for 14 molecules from patent US11883398B2, “Dipeptidylpeptidase 4 inhibition enhances lymphocyte trafficking, improving both naturally occurring tumor immunity and immunotherapy” (INSTITUT PASTEUR, priority 2015, dated 2024).

One experiment deals with DASH proteases. The conditions noted are these: WO2013/078059; Narra et al. 2007; cited from earlier work.
Experiment [1] deals with DPP8/9 over-expressing cells. The conditions noted are these: cited from earlier work; for selectivity for DPP4 over DPP8 and 9: Huan et al. 2015; for selectivity towards DPP4: Madar et al. 2006, Gilibili et al. 2015.
In a further experiment the target is DPP8 (Homo sapiens, UniProt Q6V1X1). Particulars: Verspohl 2012; Huan et al. 2015; cited from earlier work.
Chain of DPP8 (Q6V1X1 whole entry, species assumed): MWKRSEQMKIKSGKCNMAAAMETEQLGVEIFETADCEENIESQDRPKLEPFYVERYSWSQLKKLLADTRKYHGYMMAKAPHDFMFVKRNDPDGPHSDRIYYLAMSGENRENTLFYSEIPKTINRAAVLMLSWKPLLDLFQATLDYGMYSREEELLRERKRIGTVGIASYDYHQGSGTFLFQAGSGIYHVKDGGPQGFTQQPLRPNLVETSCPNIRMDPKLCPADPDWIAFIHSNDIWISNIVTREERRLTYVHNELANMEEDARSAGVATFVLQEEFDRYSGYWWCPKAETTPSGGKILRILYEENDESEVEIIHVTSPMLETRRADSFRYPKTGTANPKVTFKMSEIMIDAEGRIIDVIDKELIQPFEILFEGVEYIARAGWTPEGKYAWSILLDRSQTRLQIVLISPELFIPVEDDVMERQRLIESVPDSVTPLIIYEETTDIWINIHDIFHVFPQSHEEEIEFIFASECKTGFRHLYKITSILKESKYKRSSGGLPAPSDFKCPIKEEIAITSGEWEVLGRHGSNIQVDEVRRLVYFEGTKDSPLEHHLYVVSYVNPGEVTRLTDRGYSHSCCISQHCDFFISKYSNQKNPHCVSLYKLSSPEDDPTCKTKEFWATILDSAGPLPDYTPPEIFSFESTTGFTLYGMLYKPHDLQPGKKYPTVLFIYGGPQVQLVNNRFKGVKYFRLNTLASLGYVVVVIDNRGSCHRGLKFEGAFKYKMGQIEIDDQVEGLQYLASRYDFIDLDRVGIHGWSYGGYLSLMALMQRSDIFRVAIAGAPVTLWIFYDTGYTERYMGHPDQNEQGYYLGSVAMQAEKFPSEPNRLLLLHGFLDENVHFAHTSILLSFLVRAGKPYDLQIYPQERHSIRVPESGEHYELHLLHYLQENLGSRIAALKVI
For a further experiment, the target named is DPP9 (Homo sapiens, UniProt Q86TI2). Particulars: Verspohl 2012; Huan et al. 2015; cited from earlier work.
Chain of DPP9 (Q86TI2 whole entry, species assumed): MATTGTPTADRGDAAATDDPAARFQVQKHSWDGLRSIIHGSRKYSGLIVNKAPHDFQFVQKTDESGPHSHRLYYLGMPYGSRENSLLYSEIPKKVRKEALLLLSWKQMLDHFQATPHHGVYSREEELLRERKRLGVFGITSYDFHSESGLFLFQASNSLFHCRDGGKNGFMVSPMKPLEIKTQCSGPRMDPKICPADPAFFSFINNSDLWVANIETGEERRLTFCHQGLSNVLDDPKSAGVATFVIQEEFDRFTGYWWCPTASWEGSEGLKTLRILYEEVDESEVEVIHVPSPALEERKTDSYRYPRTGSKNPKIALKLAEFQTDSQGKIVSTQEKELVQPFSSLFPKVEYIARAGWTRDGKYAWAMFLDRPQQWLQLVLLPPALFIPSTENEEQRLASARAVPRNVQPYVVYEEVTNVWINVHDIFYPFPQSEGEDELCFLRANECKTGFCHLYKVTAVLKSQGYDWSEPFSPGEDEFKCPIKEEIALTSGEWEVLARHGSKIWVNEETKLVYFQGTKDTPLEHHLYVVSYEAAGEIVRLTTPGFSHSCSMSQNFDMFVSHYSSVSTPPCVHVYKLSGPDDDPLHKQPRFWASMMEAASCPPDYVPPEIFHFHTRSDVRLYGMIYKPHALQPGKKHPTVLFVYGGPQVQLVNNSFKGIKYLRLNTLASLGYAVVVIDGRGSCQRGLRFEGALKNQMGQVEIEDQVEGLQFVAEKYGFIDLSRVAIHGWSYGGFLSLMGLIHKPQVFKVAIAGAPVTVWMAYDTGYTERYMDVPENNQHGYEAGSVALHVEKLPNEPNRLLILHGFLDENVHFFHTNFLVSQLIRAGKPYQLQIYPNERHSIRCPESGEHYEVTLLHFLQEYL
Another experiment addresses T1, mDPP4 (Mus musculus, UniProt P28843).
T1 construct: purchased Peprotech
The experiment can be described thus: DPP4 processing of recombinant chemokines (SELDI-TOF mass spectrometry). Format: biochemical. The conditions noted are these: 10 nM mDPP4, 30 min at 37° C. On the procedure: Recombinant mDPP4, mCXCL10, mCXCL9, mCXCL11, mCCL2, mCCL3, mCCL4, mCCL5, mCXCL12 and mCCL22 were purchased from Peprotech. For surface-enhanced laser desorption/ionization-[…] (SELDI-TOF) mass spectrometry, chemokines were incubated in the presence or absence of 10 nM of mDPP4 for 30 min at 37° C. The digested product was applied onto an H4 protein chip, following the manufacturer's instructions and analyzed using the PROTEINCHIP™ SYSTEMS SERIES 4000 (Ciphergen). Data were analyzed using CIPHERGENEXPRESS Software.

A further experiment has as its system CXCR3-expressing T cells. The experiment can be described thus: Model of trafficking into the peritoneal cavity. Particulars: 1 μg chemokine intraperitoneally. In kind it is in vivo, mouse. On the procedure: WT and Dpp4^−/− mice were intraperitoneally injected with PBS or 1 μg of mCXCL10, mCXCL9 or mCCL5 (all from Peprotech). At the indicated time points, mice were sacrificed and peritoneal cells were collected in 10 mL of PBS. For thioglycollate induced peritonitis mice were intraperitoneally injected with thioglycollate 3% weight/volume, 24 hours before collection of peritoneal cells.
Fluorochrome-conjugated anti-mouse CD3 (clone145-2C11), CD8 (clone 53-6.7), CD4 (clone RM4-5), NK1.1 (clone PK136), CD49b (clone DX5), CD25 (clone PC61), B220 (clone RA3-6B2), Ly6G (clone 1A8), Ly6C (clone AL-21), CD11 b (clone M1/70) Siglec-F (clone E50-2440), MHCII IA-IE (clone M5/114.15.2), CD45.2 (clones 56-0454-82 and 109830), Thy-1.1 (clone HIS51), Thy-1.2 (clone 53-2.1), DPP4 (clone H194-112) and CXCR3 (clone CXCR3-173) were from eBiosciences and BD Biosciences. Fluorochrome conjugated anti-F4/80 (clone CI:A3-1) was from AbDserotec. For exclusion of dead cells, Live/Dead fixable Aqua reagent (Invitrogen) was used. For all staining protocols, cell suspensions were incubated with mouse CD16/CD32 Fc Blocking antibodies (BD Biosciences) prior to antibody. For analysis of peritoneal cavity infiltrates, cells were washed and incubated with a cocktail of fluorochrome-conjugated antibodies. For analysis of tumor infiltrates, B16F10 tumors were collected at the indicated time points and digested in PBS supplemented with 2.7 mg/ml of Collagenase (Roche) and 23U/ml of Deoxyribonuclease I (Invitrogen) for 30 min, 37° C. Digestion was terminated by adding PBS supplemented with 2% FCS and 5 mM EDTA (Gibco). Tumor cell suspensions were obtained after filtration over a 70 μm cell strainer. For determination of cell numbers, the […] COUNTING BEADS reagent (Invitrogen) was used. Flow cytometry was performed using a BD LSRFORTESSA or a BD CANTO cytometer, with DIVA software. Computer analysis was done with FLOWJO (Treestar).

The subject of the next experiment is B16F10 tumors. The experiment can be described thus: Flow cytometry of leukocytes infiltrating B16F10 tumors. Format: in vivo, mouse. The conditions noted are these: day 7 B16F10 tumors, 12-14 h after injection. The method, then:
B16F10 and M04 (Ovalbumin-expressing B16F10 cells, gift from C. Reis e Sousa) tumor cells were cultured in DMEM (Gibco) supplemented with 10% FCS (PAA), 0.1 mM non-essential amino acids, 1 mM sodium pyruvate, 10 mM Hepes, 70 μM beta-mercaptoethanol and 23 μg/ml gentamycin (all from Gibco). CT26 colon carcinoma cells were cultured in RPMI (Gibco) supplemented as described for DMEM. Cells for injections were passaged 1-2 times after thawing, before use. WT and genetically modified mice were subcutaneously injected with 2×10^5 B16 or 5×10^5 CT26 cells in the shaved right flank. When indicated, mice received an intra-tumoral injection of 1 μg of recombinant mCXCL10, 5 μg CpG-A in DOPTAP or vehicle control. For blocking of chemokine and chemokine receptors, WT mice were intraperitoneally injected with 100 μg of hamster a-mCXCR3 (clone CXCR3-173, BioLegend), 100 μg of hamster α-mCCR5 (clone HM-CCR5, BioLegend), 50 μg of rat anti-mCXCL10 (clone 134013, R&D systems) and 20 μg of rat-α-mCXCR4 (clone 2B11/CXCR4, BD Biosciences) or with respective isotype antibodies (hamster IgG (clone HTK888, BioLegend, used as control for mCXCR3 and mCCR5 blockage); rat IgG2a (clone 54447, R&D systems, used as control for mCXCL10 blockade) and rat IgG2b (clone A95-1, BD Biosciences, used as control for mCXCR4 blockade). Intraperitoneal injection was done one day before and 4, 8 and 12 days after tumor cell injection. For CXCL10 neutralization, antibodies were injected on day 2, 5, 8 and 11 after tumor cell injection. For immunotherapy protocols, mice were intraperitoneally injected with 100 μg of mouse α-CTLA-4 (clone 9D9, Bioxcell), 200 μg of PD1 (clone RMP1-14, Bioxcell), a combination of 100 μg of α-CTLA-4+200 μg of a-PD1 or control isotypes (100 μg […] and 200 μg rat IgG2a (clone 2A3), both from Bioxcell) on day 3, 6 and 9 after tumor cell implantation. For adoptive cell transfer experiments, Pmel-1 Thy-1.1^+Thy-1.1^+, Cxcr3^−/− Thy-1.1^+Thy-1.2^+ Pmel-1 or OT1 splenocytes were activated ex-vivo, by incubation with 1 nM of human gp100 (for Pmel-1 cells) or […] (for OT1 cells) peptides for 1h at room temperature with agitation. Splenocytes were then washed and resuspended in R10 supplemented with 30U/mL of recombinant human IL-2. CD8^+ T cells were expanded for 6-7 days before used. For analysis of tumor infiltrates, activated Cxcr3^+/+ Thy-1.1^+Thy-1.1^+ and Cxcr3^−/− Thy-1.1^+Thy-1.2^+ transgenic Pmel-1 CD8^+ T cells were mixed in a 1:1 ratio (total 1×10^6 cells) and injected intravenously into gender matched tumor-bearing mice (3 days after tumor cell injection). For analysis of tumor growth, activated OT1 cells were injected intravenously (1×10^5 cells per mouse) into gender matched tumor-bearing mice, 3 days after tumor cell injection. Tumor height and width were measured with a caliper and tumor volume was calculated (Elliptical volume=width^2×height×0.523). The model of metastatic melanoma was achieved by intravenous injection of 2×10^5 B16 tumor cells. 15 days after tumor cell injection, lungs were dissected, placed in Fekete's solution and metastatic foci were counted. Lungs with more than 100 metastatic nodules were defined as 100.
Fluorochrome-conjugated anti-mouse CD3 (clone145-2C11), CD8 (clone 53-6.7), CD4 (clone RM4-5), NK1.1 (clone PK136), CD49b (clone DX5), CD25 (clone PC61), B220 (clone RA3-6B2), Ly6G (clone 1A8), Ly6C (clone AL-21), CD11 b (clone M1/70) Siglec-F (clone E50-2440), MHCII IA-IE (clone M5/114.15.2), CD45.2 (clones 56-0454-82 and 109830), Thy-1.1 (clone HIS51), Thy-1.2 (clone 53-2.1), DPP4 (clone H194-112) and CXCR3 (clone CXCR3-173) were from eBiosciences and BD Biosciences. Fluorochrome conjugated anti-F4/80 (clone CI:A3-1) was from AbDserotec. For exclusion of dead cells, Live/Dead fixable Aqua reagent (Invitrogen) was used. For all staining protocols, cell suspensions were incubated with mouse CD16/CD32 Fc Blocking antibodies (BD Biosciences) prior to antibody. […]

T1 sequence (P28843 whole entry): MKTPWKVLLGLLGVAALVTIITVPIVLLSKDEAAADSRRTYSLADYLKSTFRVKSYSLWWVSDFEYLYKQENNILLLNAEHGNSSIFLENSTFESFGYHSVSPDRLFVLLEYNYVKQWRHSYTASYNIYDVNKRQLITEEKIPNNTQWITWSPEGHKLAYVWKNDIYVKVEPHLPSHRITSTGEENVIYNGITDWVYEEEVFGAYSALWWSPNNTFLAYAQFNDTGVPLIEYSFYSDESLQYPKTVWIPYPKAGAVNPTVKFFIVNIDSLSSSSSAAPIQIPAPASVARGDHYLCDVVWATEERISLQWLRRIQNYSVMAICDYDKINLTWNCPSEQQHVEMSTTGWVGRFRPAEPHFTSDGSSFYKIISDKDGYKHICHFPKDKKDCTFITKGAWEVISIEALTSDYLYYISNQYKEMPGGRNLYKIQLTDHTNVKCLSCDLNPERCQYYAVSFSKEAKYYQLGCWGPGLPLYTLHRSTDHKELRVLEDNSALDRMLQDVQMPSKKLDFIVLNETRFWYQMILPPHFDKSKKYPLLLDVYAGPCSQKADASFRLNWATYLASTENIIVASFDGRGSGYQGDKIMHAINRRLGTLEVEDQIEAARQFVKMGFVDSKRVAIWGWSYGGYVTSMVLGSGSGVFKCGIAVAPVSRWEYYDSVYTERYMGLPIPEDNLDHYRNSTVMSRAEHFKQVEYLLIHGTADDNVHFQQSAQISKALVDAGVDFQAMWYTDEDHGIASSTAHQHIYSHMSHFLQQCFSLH

Consider `CC(C)[C@H](N)C(=O)N1CCC[C@H]1B(O)O` [Val-boroPro], for which the “inhibition of DASH proteases” value in the experiment with DASH proteases was “inhibiting a multitude of DASH proteases”. Regarding `COc1cc2c(cc1OC)[C@@H]1C[C@H](N)[C@@H](N3C[C@@H](CF)CC3=O)CN1CC2` [carmegliptin], in experiment [1], the “selectivity for DPP4 over DPP8 and 9” value is “highly-selective inhibitors of DPP4”; the “selectivity towards DPP4” value is on record as “highly selective towards DPP4”. As for `CC(C)(C)[C@H](N)C(=O)N1CCC[C@H]1B(O)O` [ARI-4175], the “inhibition of DASH proteases” value in the experiment on DASH proteases is recorded as “inhibiting a multitude of DASH proteases”. Regarding `Cn1c(=O)cc(N2CCC[C@@H](N)C2)n(Cc2ccccc2C#N)c1=O` [alogliptin], the “effect on DPP8 activity” value at DPP8 is on record as “no effect”. Also, the “effect on DPP9 activity” value on DPP9 was “no effect”. In the case of “mCXCL12: recombinant mouse chemokine (Peprotech)”, the “susceptibility to DPP4 N-terminal truncation” value (“susceptibility” below) with mDPP4 was “in vitro cleavage”. Take `C#C[C@H]1CC[C@@H](C#N)N1C(=O)CNC1(C)CCN(c2cc(C(=O)O)ccn2)CC1` [ABT-279]: in experiment [1], the “selectivity for DPP4 over DPP8 and 9” value is recorded as “highly-selective inhibitors of DPP4”; the “selectivity towards DPP4” value was “highly selective towards DPP4”.

In the case of “mCCL2: recombinant mouse chemokine (Peprotech)”, in the experiment with mDPP4, the “susceptibility” value is listed as “in vitro cleavage”. On to `N[C@H]1CC(C(=O)N2CCn3c(nnc3C(F)(F)F)C2)=CC[C@@H]1c1cc(F)c(F)cc1F` [ABT-341], for which, in experiment [1], the “selectivity for DPP4 over DPP8 and 9” value is listed as “highly-selective inhibitors of DPP4”; the “selectivity towards DPP4” value is reported as “highly selective towards DPP4”. With `N#C[C@@H]1C[C@H](F)CN1C(=O)[C@@H](N)C(c1ccc(F)cc1)c1ccc(F)cc1` [denagliptin], in experiment [1], the “selectivity for DPP4 over DPP8 and 9” value is “highly-selective inhibitors of DPP4”; the “selectivity towards DPP4” value was “highly selective towards DPP4”.

B1: mCCL22: recombinant mouse chemokine (Peprotech) (protein, UniProt O88430 25-92, looked up)
C-C motif chemokine 22: GPYGANVEDSICCQDYIRHPLPSRLVKEFFWTSKSCRKPGVVLITVKNRDICADPRQVWVKKLLHKLS
In the case of B1, in the experiment with mDPP4, the “susceptibility” value was “in vitro cleavage”.

B2: mCXCL9: recombinant mouse chemokine (Peprotech) (protein, UniProt P18340 22-126, looked up)
C-X-C motif chemokine 9: TLVIRNARCSCISTSRGTIHYKSLKDLKQFAPSPNCNKTEIIATLKNGDQTCLDPDSANVKKLMKEWEKKISQKKKQKRGKKHQKNMKNRKPKTPQSRRRSRKTT
As for B2, in the experiment with mDPP4, the “susceptibility” value is reported as “insensitive to DPP4-mediated truncation”. Also, the “chemokine-induced leukocyte migration into the peritoneal cavity” value with CXCR3-expressing T cells (WT and Dpp4-/- mice, 6 h) was “migration of NK cells into the peritoneal cavity”.

B3: mCCL3: recombinant mouse chemokine (Peprotech) (protein, UniProt P10855 24-92, looked up)
C-C motif chemokine 3: APYGADTPTACCFSYSRKIPRQFIVDYFETSSLCSQPGVIFLTKRNRQICADSKETWVQEYITDLELNA
For B3, in the experiment with mDPP4, the “susceptibility” value was “in vitro cleavage”.

B4: mCXCL10: recombinant full length mouse CXCL10 (Peprotech) (protein, UniProt P17515 22-98, looked up)
C-X-C motif chemokine 10: IPLARTVRCNCIHIDDGPVRMRAIGKLEIIPASLSCPRVEIIATMKKNDEQRCLNPESKTIKNLMKAFSQKRSKRAP
Consider B4, for which the “lymphocyte recruitment into the tumor parenchyma after intratumoral mCXCL10” value in the experiment with B16F10 tumors is “no increase in lymphocyte migration”. Moreover, the “susceptibility” value with mDPP4 is “sensitive to DPP4 N-terminal truncation”. Moreover, the “infiltration of CXCR3-expressing T cells into the peritoneal cavity in control mice” value in the experiment on CXCR3-expressing T cells (control chow) is “failed to induce significant infiltration of CXCR3-expressing T cells”.

B5: mCCL4: recombinant mouse chemokine (Peprotech) (protein, UniProt P14097 24-92, looked up)
C-C motif chemokine 4: APMGSDPPTSCCFSYTSRQLHRSFVMDYYETSSLCSKPAVVFLTKRGRQICANPSEPWVTEYMSDLELN
As to B5, the “susceptibility” value with mDPP4 was “in vitro cleavage”.
